Assay results: patent US20260151379A1, “SALT TYPE AND CRYSTAL FORM OF COMPLEMENT FACTOR B INHIBITOR, AND PREPARATION METHOD THEREFOR AND APPLICATION THEREOF” (SHANGHAI MEIYUE BIOTECH DEVELOPMENT CO., LTD., priority 2022, published 2026)
Values joined by “and” are separate entries in the source; they are usually repeats but may differ in a detail not shown here. Identical values can stand only once. Counter-ions that a name gives are not always drawn. One block for each compound: values may come before it.

What was measured:
Type in all cases: physicochemical
[1] = Solubility tests in water, SGF, FaSSIF, FeSSIF at 37° C. (Example 5)
Procedure: Experimental procedures: 30 mg (in water) or 15 mg of a sample was weighed out and added to a 4 mL vial; 3 mL of a medium to be tested (water, SGF, FaSSIF, or FeSSIF) was added; the mixture was continuously stirred at 37° C.; 0.5 mL of the sample was separately collected at 1 h and 24 h; centrifugation was performed at 12000 rpm for 10 min; the supernatant was diluted with 50% aqueous acetonitrile solution to an appropriate multiple; and the concentration of the supernatant was determined.
(§1) Control and linearity: 10 mg of the compound of formula I was weighed out and added to a 50 mL volumetric flask, 50% aqueous acetonitrile solution was added for dissolution, and the mixture was diluted to volume. Two parts were prepared in parallel. The control of the compound of formula I was taken and diluted with 50% aqueous acetonitrile solution to 100 μg/mL, 50 μg/mL, and 10 μg/mL, 5 μL of the sample was injected, and a standard curve was plotted.

[2] = Stability tests of compound of formula I and its monohydrochloride, phosphate and maleate (Example 4); details: for Stability (conclusion in words from Table 7): 40° C./75% RH closed/open and 60° C. closed, 2 wks
Procedure: The stability of the compound of formula I, the monohydrochloride of the compound of formula I in Example 1, the phosphate of the compound of formula I in Example 2, and the maleate of the compound of formula I in Example 3 were investigated.
Stability investigation conditions: 40° C./75% RH-closed, 40° C./75% RH-open, and 60° C.-closed; stability investigation content: changes in related substances and crystal forms.
Detection of related substances: about 6-7 mg of a sample was separately weighed out and added to a 10 mL volumetric flask; 50% aqueous acetonitrile solution was added for dissolution; the mixture was diluted to volume; and 10 μL of the sample was injected.

[3] = Solubility tests of compound of formula I, mixture of crystal forms A and B, and crystal form C at 37° C. (Example 13)
Procedure: An appropriate amount of a test sample was weighed out and added to a vial; 3 mL of a medium (water, SGF, FaSSIF, FeSSIF, or the like) was added; the mixture was stirred at 37° C.; […]; centrifugation was performed at 12000 rpm for 10 min; the supernatant was diluted with 50% aqueous acetonitrile solution to an appropriate multiple; and the concentration of the supernatant was determined.
as §1, with “control” for “control of the compound of formula I”

[4] = Stability investigation of crystal form C of monohydrochloride, 1 month (Example 11)
Procedure: […] The stability of the crystal form was investigated.
Detection method for related substances of the stability sample: about 6 mg of the sample was weighed out and added to a 40 mL clean glass bottle; 10 mL of 50% aqueous acetonitrile solution was added; the sample was dissolved completely by ultrasonication; and 10 μL of the sample was injected for the test of the related substances, as shown in Table 15. The XRPD pattern is shown in FIG. 18, wherein HCl-salt Form 3-initial (hereinafter referred to as initial) represents the XRPD pattern of the crystal form C prepared in Example 8.

[5] = Effect of high temperature and high humidity on crystal form C (Example 12); details: open, 60° C., 80% RH and 92.5% RH, 1 day and 3 days
Excerpt: The sample was separately collected on 1d and 3d for XRPD testing.

[6] = Open storage of crystal form A under acceleration conditions (Example 7); details: 40° C./75% RH, 72 h
Excerpt: The crystal form B is a monohydrate of the monohydrochloride of the compound of formula I.

[7] = pH 6.8 (adjusted with sodium hydroxide solution), 37° C.
[8] = pH 7.4 (adjusted with sodium hydroxide solution), 37° C.
[9] = Initial, listed as Crystal form C of monohydrochloride of compound of formula I
[10] = FaSSIF, listed as Compound of formula I Hydrochloride
[11] = FeSSIF, listed as Compound of formula I Hydrochloride
[12] = SGF, listed as Compound of formula I Hydrochloride
[13] = Water, listed as Compound of formula I Hydrochloride

Compound: COc1cc(C)c2[nH]ccc2c1CN1CCC(OCC2CC2)CC1c1ccc(C(=O)O)cc1.O=P(O)(O)O (stereo not shown) [Compound of formula I Phosphate]
- Final pH ([1]; FaSSIF): 4.76
- Solubility (mg/mL) (1 h) ([1]; FaSSIF): 0.45 mg/mL
- Solubility (mg/mL) (24 h) ([1]; FaSSIF): 0.27 mg/mL
- Final pH ([1]; FessIF): 4.84
- Solubility (mg/mL) (1 h) ([1]; FessIF): 0.64 mg/mL
- Solubility (mg/mL) (24 h) ([1]; FessIF): 0.40 mg/mL
- Final pH ([1]; SGF): 1.61
- Solubility (mg/mL) (1 h) ([1]; SGF): 5.35 mg/mL
- Solubility (mg/mL) (24 h) ([1]; SGF): 5.55 mg/mL
- Final pH ([1]; Water): 2.53
- Solubility (mg/mL) (1 h) ([1]; Water): 8.07 mg/mL
- Solubility (mg/mL) (24 h) ([1]; Water): 6.24 mg/mL
- Stability (conclusion in words from Table 7) [2]: stable
- Appearance ([2]; 40° C./75% RH-closed-2 wks): White powder
- Maximum single impurity % ([2]; 40° C./75% RH-closed-2 wks): 0.09%
- Purity % ([2]; 40° C./75% RH-closed-2 wks): 99.63%
- Total impurity % ([2]; 40° C./75% RH-closed-2 wks): 0.37%
- Appearance ([2]; 40° C./75% RH-open-2 wks): White powder
- Maximum single impurity % ([2]; 40° C./75% RH-open-2 wks): 0.09%
- Purity % ([2]; 40° C./75% RH-open-2 wks): 99.64%
- Total impurity % ([2]; 40° C./75% RH-open-2 wks): 0.36%
- Appearance ([2]; 60° C.-closed-2 wks): White powder
- Maximum single impurity % ([2]; 60° C.-closed-2 wks): 0.08%
- Purity % ([2]; 60° C.-closed-2 wks): 99.62%
- Total impurity % ([2]; 60° C.-closed-2 wks): 0.38%
- Appearance ([2]; Initial): White powder
- Maximum single impurity % ([2]; Initial): 0.07%
- Purity % ([2]; Initial): 99.75%
- Total impurity % ([2]; Initial): 0.25%

Compound: COc1cc(C)c2[nH]ccc2c1CN1CCC(OCC2CC2)CC1c1ccc(C(=O)O)cc1.O=C(O)C=CC(=O)O (stereo not shown) [Compound of formula I Maleate]
- Stability (conclusion in words from Table 7) [2]: stable
- Appearance ([2]; 40° C./75% RH-closed-2 wks): White powder
- Maximum single impurity % ([2]; 40° C./75% RH-closed-2 wks): 0.08%
- Purity % ([2]; 40° C./75% RH-closed-2 wks): 99.78%
- Total impurity % ([2]; 40° C./75% RH-closed-2 wks): 0.22%
- Maximum single impurity % ([2]; 40° C./75% RH-open-2 wks): 0.09%
- Purity % ([2]; 40° C./75% RH-open-2 wks): 99.64%
- Total impurity % ([2]; 40° C./75% RH-open-2 wks): 0.36%
- Appearance ([2]; 60° C.-closed-2 wks): White powder
- Maximum single impurity % ([2]; 60° C.-closed-2 wks): 0.09%
- Purity % ([2]; 60° C.-closed-2 wks): 99.69%
- Total impurity % ([2]; 60° C.-closed-2 wks): 0.31%
- Appearance ([2]; Initial): White powder
- Maximum single impurity % ([2]; Initial): 0.08%
- Purity % ([2]; Initial): 99.80%
- Total impurity % ([2]; Initial): 0.20%

Compound: COc1cc(C)c2[nH]ccc2c1CN1CC[C@H](OCC2CC2)C[C@H]1c1ccc(C(=O)O)cc1 [Compound of formula I Monohydrochloride]
- Final pH [1, 10]: 3.83
- Solubility (mg/mL) (1 h) [1, 10]: 0.64 mg/mL
- Solubility (mg/mL) (24 h) [1, 10]: 0.39 mg/mL
- Final pH [1, 11]: 4.85
- Solubility (mg/mL) (1 h) [1, 11]: 0.74 mg/mL
- Solubility (mg/mL) (24 h) [1, 11]: 0.44 mg/mL
- Final pH [1, 12]: 1.52
- Solubility (mg/mL) (1 h) [1, 12]: 5.90 mg/mL
- Solubility (mg/mL) (24 h) [1, 12]: 5.97 mg/mL
- Final pH [1, 13]: 2.49
- Solubility (mg/mL) (1 h) [1, 13]: 11.74 mg/mL
- Solubility (mg/mL) (24 h) [1, 13]: 11.14 mg/mL
- Stability (conclusion in words from Table 7) ([2]; listed as monohydrochloride): more stable
- Appearance ([2]; 40° C./75% RH-closed-2 wks): White powder
- Maximum single impurity % ([2]; 40° C./75% RH-closed-2 wks): 0.11%
- Purity % ([2]; 40° C./75% RH-closed-2 wks): 99.57%
- Total impurity % ([2]; 40° C./75% RH-closed-2 wks): 0.43%
- Appearance ([2]; 40° C./75% RH-open-2 wks): White powder
- Maximum single impurity % ([2]; 40° C./75% RH-open-2 wks): 0.10%
- Purity % ([2]; 40° C./75% RH-open-2 wks): 99.59%
- Total impurity % ([2]; 40° C./75% RH-open-2 wks): 0.41%
- Appearance ([2]; 60° C.-closed-2 wks): White powder
- Maximum single impurity % ([2]; 60° C.-closed-2 wks): 0.13%
- Purity % ([2]; 60° C.-closed-2 wks): 99.59%
- Total impurity % ([2]; 60° C.-closed-2 wks): 0.41%
- Appearance ([2]; Initial): White powder
- Maximum single impurity % ([2]; Initial): 0.14%
- Purity % ([2]; Initial): 99.59%
- Total impurity % ([2]; Initial): 0.41%

The next lines start with results.

- Final pH ([3]; FaSSIF, 37° C.): 3.27
- solubility at 1 h ([3]; FaSSIF, 37° C.): 1160 µg/mL
- solubility at 24 h ([3]; FaSSIF, 37° C.): 880 µg/mL
- Final pH ([3]; FessIF, 37° C.): 4.83
- solubility at 1 h ([3]; FessIF, 37° C.): 640 µg/mL
- solubility at 24 h ([3]; FessIF, 37° C.): 420 µg/mL
- Final pH ([3]; SGF, 37° C.): 1.26
- solubility at 1 h ([3]; SGF, 37° C.): 940 µg/mL
- solubility at 24 h ([3]; SGF, 37° C.): 790 µg/mL
- Final pH ([3]; Water, 37° C.): 2.49
- solubility at 1 h ([3]; Water, 37° C.): 8320 µg/mL
- solubility at 24 h ([3]; Water, 37° C.): 7540 µg/mL
- Solubility at 1 h (mg/mL) [3, 7]: 0.56(1 h) mg/mL
- Solubility (mg/mL) (48 h) [3, 7]: 0.21(48 h) mg/mL
- Final pH ([3]; pH 6.8, 37° C., 1 h line): 6.65
- Final pH ([3]; pH 6.8, 37° C., 48 h line): 6.82
- Solubility at 1 h (mg/mL) [3, 8]: 0.45(1 h) mg/mL
- Solubility (mg/mL) (48 h) [3, 8]: 0.24(48 h) mg/mL
- Final pH ([3]; pH 7.4, 37° C., 1 h line): 7.23
- Final pH ([3]; pH 7.4, 37° C., 48 h line): 7.42
- Chemical stability (in words) ([4]; 40° C./75% RH and 60° C. for 1 month): good chemical stability
- Maximum single impurity % ([4]; 40° C./75% RH-closed-1 M): 0.29%
- Purity % ([4]; 40° C./75% RH-closed-1 M): 99.58%
- Total impurity % ([4]; 40° C./75% RH-closed-1 M): 0.42%
- Maximum single impurity % ([4]; 40° C.75% RH-open-1 M): 0.27%
- Purity % ([4]; 40° C.75% RH-open-1 M): 99.60%
- Total impurity % ([4]; 40° C.75% RH-open-1 M): 0.40%
- Maximum single impurity % ([4]; 60° C.-closed-1 M): 0.32%
- Purity % ([4]; 60° C.-closed-1 M): 99.56%
- Total impurity % ([4]; 60° C.-closed-1 M): 0.44%
- Appearance ([4]; Initial): White powder
- Maximum single impurity % [4, 9]: 0.65% and 0.96%
- Purity % [4, 9]: 99.17% and 98.88%
- Total impurity % [4, 9]: 0.83% and 1.12%
- Crystal form by XRPD after storage (FIG. 18) ([4]; acceleration and high temperature conditions, 1 month): not changed
- Crystal form by XRPD after exposure (FIGS. 19 and 20) [5]: not changed
Compound: COc1cc(C)c2[nH]ccc2c1CN1CCC(OCC2CC2)CC1c1ccc(C(=O)O)cc1.Cl (stereo not shown) [Crystal form C]
- Solubility in water compared to mixture of crystal forms A and B (in words) ([3]; Water, 37° C.): reduced solubility in water compared to the mixture of crystal forms A and B

- Crystal form after open storage [6]: transformed into crystal form B
Compound: COc1cc(C)c2[nH]ccc2c1CN1CCC(OCC2CC2)CC1c1ccc(C(=O)O)cc1.Cl (stereo not shown) [Crystal form A]
